# Data from patent publication US12083094B2, “Cannabinoid composition and methods of treatment using the same” (CANNPAL ANIMAL THERAPEUTICS LIMITED, priority 2018, dated 2024).
# Experiment: Blood sampling for THC and CBD plasma concentration after single oral dosing
# Conditions: oral
# Experimental: Two compositions, IVP1 and IVP2, were administered in varying amounts in the study.
# Dosage volumes were calculated prior to Day 0, to provide the target dosage in mg/kg bodyweight based on actual dog bodyweights and IVP active ingredient composition based on the Certificates of Analysis.
# Blood samples of approximately 5 mL were collected at each drug concentration sampling time-point from each animal using 22-gauge needles and 5 mL syringes.
# The data points from Table 4 and Table 5 were also plotted and these graphs are set out in FIGS. 1-16.
# [1] = dog, plasma, CBD concentration in blood plasma, individual dogs 1-4, 0.12 mg/kg CBD + 0.24 mg/kg THC oral once
# [2] = dog, plasma, CBD concentration in blood plasma, individual dogs 5-8, 0.24 mg/kg CBD + 0.12 mg/kg THC oral once
# [3] = dog, plasma, CBD concentration in blood plasma, mean of dogs 1-4, 0.12 mg/kg CBD + 0.24 mg/kg THC oral once
# [4] = dog, plasma, CBD concentration in blood plasma, mean of dogs 5-8, 0.24 mg/kg CBD + 0.12 mg/kg THC oral once
structure (smiles),measurement,setting,value
"C=C(C)[C@@H]1CCC(C)=C[C@H]1c1c(O)cc(CCCCC)cc1O [CBD, Cannabidiol]",AUC of CBD after 0.12 mg/kg THC/0.24 mg/kg CBD relative to AUC of CBD after 0.24 mg/kg THC/0.12 mg/kg CBD,canine,more than twice
same,concentration at 0 h,[1],0 ng/mL
same,concentration at 1.5 h,[1],7.5 ng/mL
same,concentration at 2 h,[1],6.27 ng/mL
same,concentration at 32 h,[1],0 ng/mL
same,concentration at 0 h,[2],0 ng/mL
same,concentration at 2 h,[2],23.7 ng/mL
same,concentration at 3 h,[2],9.21 ng/mL
same,concentration at 4 h,[2],5.28 ng/mL
same,concentration at 12 h,[2],0.88 ng/mL
same,concentration at 16 h,[2],0.55 ng/mL
same,concentration at 24 h,[2],0.38 ng/mL
same,concentration at 32 h,[2],0.28 ng/mL
same,concentration at 72 h,"dog, plasma, CBD concentration in blood plasma, individual dogs 5-8, 0.24 mg/kg CBD + 0.12 mg/kg THC oral once, 72 h",0 ng/mL
same,concentration at 0 h,[3],0 ng/mL
same,concentration at 0.67 h,[3],12.3 ng/mL
same,concentration at 1 h,[3],11.2 ng/mL
same,concentration at 1.5 h,[3],8.6 ng/mL
same,concentration at 2 h,[3],6.89 ng/mL
same,concentration at 3 h,[3],4.31 ng/mL
same,concentration at 4 h,[3],2.9 ng/mL
same,concentration at 6 h,[3],2.02 ng/mL
same,concentration at 8 h,[3],1.3 ng/mL
same,concentration at 12 h,[3],0.41 ng/mL
same,concentration at 16 h,[3],0.16 ng/mL
same,concentration at 24 h,[3],0.11 ng/mL
same,concentration at 32 h,[3],0 ng/mL
same,concentration at 0 h,[4],0 ng/mL
same,concentration at 0.67 h,[4],30.1 ng/mL
same,concentration at 1 h,[4],35.8 ng/mL
same,concentration at 1.5 h,[4],26.9 ng/mL
same,concentration at 2 h,[4],17.9 ng/mL
same,concentration at 3 h,[4],7.5 ng/mL
same,concentration at 4 h,[4],4.53 ng/mL
same,concentration at 6 h,[4],3.31 ng/mL
same,concentration at 8 h,[4],2.79 ng/mL
same,concentration at 12 h,[4],0.77 ng/mL
same,concentration at 16 h,[4],0.54 ng/mL
same,concentration at 24 h,[4],0.35 ng/mL
